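These data come from cells grown in 96-well plates and exposed to compound for 48 hours at five concentrations. The concentration for full growth arrest is given as TGI.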

Among the test systems are NCI-H226 lung; EKVX NSCLC; OVCAR-8 ovarian; UACC-62 melanoma; HOP-92 NSCLC; NCI-H23 lung; SK-MEL-5 melanoma; IGROV1 ovarian; SNB-19 CNS; RPMI-8226 leukemia; KM12 colon; 786-0 renal; NCI-H460 lung; MDA-MB-231 breast; HOP-62 NSCLC; SK-OV-3 ovarian.
Common to all, as to assay: NCI anticancer screen, dose series, 48 h

`CCCC(=O)OCC1OC(n2cc(F)c(=O)[nH]c2=O)C(F)C1O` (stereo not drawn): the TGI in the assay on NCI-H226 lung, with EKVX NSCLC, with OVCAR-8 ovarian, in the assay on UACC-62 melanoma, in the assay on HOP-92 NSCLC and with NCI-H23 lung was above 100 µM throughout. Besides, the TGI in the assay on SK-MEL-5 melanoma, in the assay on IGROV1 ovarian, with SNB-19 CNS, in the assay with RPMI-8226 leukemia, in the assay with KM12 colon and in the assay with 786-0 renal was above 100 µM each time. Also, the TGI with NCI-H460 lung, in the assay with MDA-MB-231 breast, in the assay with HOP-62 NSCLC and with SK-OV-3 ovarian was above 100 µM each time.
Take `CCN(CC)CCCNc1ccc([N+](=O)[O-])c2nc3ccccc3c(N)c12`: the TGI with NCI-H226 lung was above 10 µM; with EKVX NSCLC, 2.86 µM; with OVCAR-8 ovarian, 4.51 µM; in the assay on UACC-62 melanoma, above 10 µM; in the assay on HOP-92 NSCLC, above 10 µM; with NCI-H23 lung, 2.76 µM. The TGI with SK-MEL-5 melanoma turned out to be 1.53 µM; in the assay on IGROV1 ovarian, 2.6 µM; with SNB-19 CNS, 5.5 µM; in the assay on RPMI-8226 leukemia it was 8.35 µM; in the assay with KM12 colon, 1.7 µM; in the assay on 786-0 renal, 1.72 µM. In addition, the TGI in the assay with NCI-H460 lung was 1.44 µM; with MDA-MB-231 breast, 2.09 µM; in the assay on HOP-62 NSCLC it was above 10 µM; in the assay on SK-OV-3 ovarian, 3.4 µM.
Take `Cc1cccc2c(N)c3cccc(C(=O)NCC[N+](C)(C)Cc4ccccc4[N+](=O)[O-])c3nc12`: the TGI in the assay with NCI-H226 lung was above 100 µM; in the assay on EKVX NSCLC, above 100 µM; in the assay with OVCAR-8 ovarian it was above 30.7 µM; with UACC-62 melanoma it was above 19.7 µM; in the assay with HOP-92 NSCLC it was 49.5 µM; in the assay on NCI-H23 lung, 14.1 µM. In addition, the TGI in the assay on SK-MEL-5 melanoma was above 41.1 µM; with IGROV1 ovarian it was above 100 µM; with SNB-19 CNS, above 100 µM; in the assay on RPMI-8226 leukemia, above 58.3 µM; with KM12 colon, above 100 µM; in the assay with 786-0 renal, 12.7 µM. Besides, the TGI in the assay on NCI-H460 lung is 16 µM; in the assay on MDA-MB-231 breast it was above 55.6 µM; with HOP-62 NSCLC, above 41.4 µM; in the assay on SK-OV-3 ovarian it was above 95.1 µM.
Turning to `Cc1n[nH]c(=O)n1C1CC1`, the TGI with NCI-H226 lung, in the assay with EKVX NSCLC, in the assay on OVCAR-8 ovarian, in the assay with UACC-62 melanoma, with HOP-92 NSCLC and in the assay with NCI-H23 lung was above 100 µM throughout. Further, the TGI with SK-MEL-5 melanoma, in the assay with IGROV1 ovarian, in the assay on SNB-19 CNS, with RPMI-8226 leukemia, with KM12 colon and in the assay with 786-0 renal was above 100 µM each time. The TGI with NCI-H460 lung, in the assay on MDA-MB-231 breast, in the assay on HOP-62 NSCLC and with SK-OV-3 ovarian was above 100 µM each time.
For `Cn1cc(NC(=O)Nc2cc(C(=O)Nc3cc(C(=O)Nc4ccc5cc(S(=O)(=O)O)cc(S(=O)(=O)O)c5c4)n(C)c3)n(C)c2)cc1C(=O)Nc1cc(C(=O)Nc2ccc3cc(S(=O)(=O)O)cc(S(=O)(=O)O)c3c2)n(C)c1`, the TGI in the assay with NCI-H226 lung, in the assay with EKVX NSCLC, with OVCAR-8 ovarian, in the assay with UACC-62 melanoma, in the assay on HOP-92 NSCLC and in the assay with NCI-H23 lung was above 100 µM each time. The TGI in the assay on SK-MEL-5 melanoma, in the assay on IGROV1 ovarian, in the assay with SNB-19 CNS, in the assay with RPMI-8226 leukemia, in the assay with KM12 colon and in the assay on 786-0 renal was above 100 µM each time. Moreover, the TGI in the assay on NCI-H460 lung, with MDA-MB-231 breast, in the assay on HOP-62 NSCLC and in the assay with SK-OV-3 ovarian was above 100 µM each time.
On to `Cn1c(=O)c2c(nc3n2CCCC(=O)N3CCCCl)n(C)c1=O`, for which the TGI in the assay on NCI-H226 lung, in the assay on EKVX NSCLC, in the assay on OVCAR-8 ovarian, with UACC-62 melanoma, in the assay on HOP-92 NSCLC and in the assay with NCI-H23 lung was above 100 µM throughout. Also, the TGI with SK-MEL-5 melanoma, in the assay on IGROV1 ovarian, with SNB-19 CNS, with RPMI-8226 leukemia, in the assay with KM12 colon and with 786-0 renal was above 100 µM each time. Besides, the TGI with NCI-H460 lung, in the assay on MDA-MB-231 breast, in the assay with HOP-62 NSCLC and in the assay with SK-OV-3 ovarian was above 100 µM throughout.
For the compound `CCCCCCCCCCC/C=C(/C(=O)CCCO[Si](C)(C)C(C)(C)C)C(=O)OC`, the TGI in the assay on NCI-H226 lung, in the assay on EKVX NSCLC, in the assay with OVCAR-8 ovarian, in the assay on UACC-62 melanoma, with HOP-92 NSCLC and in the assay with NCI-H23 lung was above 100 µM each time. Further, the TGI with SK-MEL-5 melanoma, in the assay with IGROV1 ovarian, in the assay on SNB-19 CNS, in the assay on RPMI-8226 leukemia, with KM12 colon and in the assay with 786-0 renal was above 100 µM throughout. Further, the TGI with NCI-H460 lung, in the assay on MDA-MB-231 breast, in the assay on HOP-62 NSCLC and in the assay on SK-OV-3 ovarian was above 100 µM in each case.
As for `Cc1cc(C)n(-c2nc(-n3nc(C)cc3C)nc(-n3nc(C)cc3C)n2)n1`, the TGI in the assay on NCI-H226 lung, in the assay with EKVX NSCLC, in the assay with OVCAR-8 ovarian, in the assay with UACC-62 melanoma, in the assay with HOP-92 NSCLC and in the assay with NCI-H23 lung was above 100 µM in each case. The TGI in the assay on SK-MEL-5 melanoma, in the assay on IGROV1 ovarian, in the assay on SNB-19 CNS, in the assay on RPMI-8226 leukemia, with KM12 colon and in the assay on 786-0 renal was above 100 µM in each case. Also, the TGI in the assay on NCI-H460 lung, in the assay with MDA-MB-231 breast, with HOP-62 NSCLC and in the assay on SK-OV-3 ovarian was above 100 µM each time.
